Laboratory results as given in patent publication US12396936B2, “Antimicrobial composition for tackling malodour” (Conopco, Inc., priority 2020, dated 2025).

Test system: S. hominis ATCC 27844
Experiment: Malodour assay using Lead acetate method (H2S blackening of lead acetate paper, ΔE by reflectometer)
Format: cell-based
Settings: active wt % as printed per example; TSB with 0.1% L-cysteine-HCl, 37° C. overnight, triplicates; calculated from ΔE; control = 100
Description: The actives as shown in Table—1 below were subjected to malodour reduction assay as described below: • Malodour assay using Lead acetate method: Preparation of Bacterial Culture:
The test organisms was grown on TSA (Tryptic Soya Agar) plates overnight (22±2 hr). The organism was not more than 3 passages removed from the original source. The cell number was adjusted by re-suspending it in a suitable amount of physiological saline sufficient to achieve the required cell number based on optical density of the cells. The optical density (OD at 620 nm) of the cells were standardized to the cell number for the test organism using a spectrophotometer. A minimum final suspension of 1.0×10^8 CFU/mL was achieved by adjusting the OD to 0.2 in saline for the malodour assay.
A 1% Lead acetate solution was made in distilled water. […]
The malodour assay was adapted from the method of Moore et al, 2003 and modified into a 96 well plate format. […] The intensity of the colour was recorded using a reflectometer as L*a*b* values.
The difference between the initial and final L*a*b* values ΔE, was used to quantify malodour formation.) ΔE=√{square root over ((Li−Lf)^2+(ai−af)^2+(bi−bf)^2)}
The percentage malodour was calculated from ΔE measured using the above assay for the various actives or combinations.

SMILES: CCCCCCc1ccc(O)cc1O [B, Hexyl resorcinol]
- Malodour generation (%): 96%
